Source: patent publication US4071622A, “Treatment of a mammary or DMBA inducible tumor” (Abbott Laboratories, priority 1976, dated 1978)

System: DMBA-induced tumors
Assay: Regression of DMBA-induced tumors in female rats, 11-day treatment
Type: in vivo
Conditions: for total tumor volume of the treated group, day 3 / total tumor volume of the treated group, day 6 / total tumor volume of the treated group, day 10 / total tumor volume of the treated group upon sacrifice, day 11 / tumor volume of one specific animal, day 3 / tumor volume of one specific animal, day 6 / tumor volume of one specific animal, day 10 / tumor volume of one specific animal, day 11: 20 μg/day s.c., b.i.d.; for total tumor volume of the treated group, day 3: day 3 of treatment; for total tumor volume of the treated group, day 6: day 6 of treatment; for total tumor volume of the treated group, day 10: day 10 of treatment; for total tumor volume of the treated group upon sacrifice, day 11 / tumor volume of one specific animal, day 11: day 11, sacrifice; for total tumor volume of the treated group at the beginning of the treatment: day 0, 100 days after 20 mg DMBA intragastric, all tumors of the group summed; for tumor volume of one specific animal at start of treatment / tumor volume of one specific animal, day 3 / tumor volume of one specific animal, day 6 / tumor volume of one specific animal, day 10 / tumor volume of one specific animal, day 11: one animal of the group; for total volume reduction in one specific animal: start to day 11
Method: In a group of 3 female, 50-day old rats, tumors were induced by intragastric feeding of 20 mg of 7,12-dimethylbenzanthracene (DMBA) in 2 ml. of sesame oil. The animals developed tumors within 10-12 weeks. All animals were maintained on normal rations for 100 days following the DMBA administration, at which time treatment with the compound identified as Compound A was started, using a b.i.d. regimen for 11 days, 20 μg/day, the compound being administered subcutaneously dissolved in isotonic saline containing 0.1% (wt/vol.) of bovine serum albumin.
The three animals carried a total of 7 tumors at the beginning of the treatment with a total volume of 39.2 cc. After 3 days, the 7 tumors had reduced to a volume of 26.7 cc; on day 6 the volume had reduced to 18.6 cc, on day 10 it was 8.7 cc, which was also the volume upon sacrifice of the animals on day 11.
The animals were prepared and pre-treated in the same fashion as those in Example 2, but Compound B was used for the 11-day treatment. The three rats used started the regimen with a total of 7 tumors of 43.3 cc total volume. Again, the tumor volumes were measured on days 3, 6, 10 and upon sacrifice, showing 37.5, 24.9, 16.3 and 15.0 cc respectively.
Except for the use of Compound C, all steps of the preceding two examples were repeated. The total of 13.4 cc of volume of 3 tumors in two rats was reduced to 10.1, 5.4, 6.4 and 5.5 cc on days 3, 6, 10 and 11. […] However, that tumor was found reduced to 3.0 cc on day 11. A third animal treated in the same fashion started out the regimen with 4 tumors of 28.1 cc which reduced to 15 cc by day 6. The animal died thereafter of causes diagnosed as having no connection with the tumors or the treatment (chronic murine pneumonia).

SMILES | total tumor volume of the treated group, day 3 | total tumor volume of the treated group, day 6 | total tumor volume of the treated group, day 10 | total tumor volume of the treated group upon sacrifice, day 11 | total tumor volume of the treated group at the beginning of the treatment (baseline) | tumor volume of one specific animal at start of treatment (baseline) | tumor volume of one specific animal, day 3 | tumor volume of one specific animal, day 6 (day 6) | tumor volume of one specific animal, day 10 (day 10) | tumor volume of one specific animal, day 11 | total volume reduction in one specific animal | volume of one single tumor in one animal, day 6 (single tumor that spontaneously increased between days 6 and 10, day 6) | volume of one single tumor in one animal, day 10 (single tumor that spontaneously increased between days 6 and 10, day 10) | volume of one single tumor in one animal, day 11 (single tumor that spontaneously increased between days 6 and 10, day 11) | tumor volume of a third animal with 4 tumors at start of regimen (third animal, not in the group total, baseline) | tumor volume of a third animal with 4 tumors, by day 6 (third animal, not in the group total, day 6, animal died thereafter of unrelated chronic murine pneumonia)
CCNC(=O)[C@@H]1CCCN1C(=O)[C@H](CCCNC(=N)N)NC(=O)[C@H](CC(C)C)NC(=O)[C@@H](Cc1c[nH]c2ccccc12)NC(=O)[C@H](Cc1ccc(O)cc1)NC(=O)[C@H](CO)NC(=O)[C@H](Cc1c[nH]c2ccccc12)NC(=O)[C@H](Cc1c[nH]cn1)NC(=O)[C@@H]1CCC(=O)N1 [Compound A] | 26.7 cc | 18.6 cc | 8.7 cc | 8.7 cc | 39.2 cc | 11.65 cc | 7.5 cc | 8.1 cc | 3.8 cc | 3.76 cc | 67.7% |  |  |  |  | 
CCNC(=O)[C@@H]1CCCN1C(=O)[C@H](CCCNC(=N)N)NC(=O)[C@H](CC(C)C)NC(=O)[C@@H](Cc1ccc(O)cc1)NC(=O)[C@H](Cc1ccc(O)cc1)NC(=O)[C@H](CO)NC(=O)[C@H](Cc1c[nH]c2ccccc12)NC(=O)[C@H](Cc1c[nH]cn1)NC(=O)[C@@H]1CCC(=O)N1 [Compound B] | 37.5 cc | 24.9 cc | 16.3 cc | 15.0 cc | 43.3 cc | 3.6 cc | 2.5 cc | 1.33 cc | 0.73 cc | 0.125 cc | 96.5% |  |  |  |  | 
CCNC(=O)[C@@H]1CCCN1C(=O)[C@H](CCCNC(=N)N)NC(=O)[C@H](CC(C)C)NC(=O)[C@@H](Cc1ccccc1)NC(=O)[C@H](Cc1ccc(O)cc1)NC(=O)[C@H](CO)NC(=O)[C@H](Cc1c[nH]c2ccccc12)NC(=O)[C@H](Cc1c[nH]cn1)NC(=O)[C@@H]1CCC(=O)N1 [Compound C] | 10.1 cc | 5.4 cc | 6.4 cc | 5.5 cc | 13.4 cc |  |  |  |  |  |  | 0.38 cc | 4.6 cc | 3.0 cc | 28.1 cc | 15 cc
